{"source": "patent US10833345B2", "about": "“Materials for high-performance aqueous organic redox flow batteries” (UNIVERSITY OF SOUTHERN CALIFORNIA, priority 2016, dated 2020)", "key": {"[1]": {"assay": "Cyclic voltammetry of redox couples in alkaline electrolyte", "assay_type": "physicochemical", "conditions": "for reduction potential: vs. mercury/mercuric oxide reference electrode (MMO)", "source_text": "The redox couples must be soluble in the alkaline electrolyte and must can undergo facile electron transfer.\nThe reduction potential for this couple in alkaline electrolyte is about −0.35 V vs. MMO.\nWhile these compounds are not suitable for operation in acidic media because of the attendant polymerization reactions, these compounds perform well in alkaline media. […] The reduction potentials are quite negative relative to the last example of DHA. Consequently, this may be combined with AQDS to form a redox flow battery.\nThe electrochemical reversibility of such a Michael addition-resistant compound is shown in FIG. 29 for benzenedi-hydroxy tetracarboxylic acid also called hydroquinonetetracarboxylic acid (HQTC). […] The reduction potential of HQTC is such that it can be combined with DHA to create a redox flow battery with a cell voltage of 0.5 V (FIG. 30). Further HQTC can also be combined with the molecules from the quinoxaline family, and the flavin family to yield redox flow batteries with the cell voltage in the range of 0.5 to 1 V. 1,2,4-trihydroxyanthraquinone (Purpurin) is claimed to be a negative electrode material suitable for operation in alkaline media."}, "[2]": {"assay": "Rotating disk electrode study of hydroxyl-substituted anthraquinones in NaOH", "assay_type": "physicochemical", "conditions": "Hydroxy anthraquinones in NaOH", "source_text": "Bifunctional redox molecules can also be a molecule with different redox properties in various ranges of potentials. This type of molecule is typified by the substituted hydroxy anthraquinones. In this regard, redox properties of several substituted anthraquinones have been studies. Electrochemistry experiments on the rotating disk electrode confirm the existence of two diffusion limited regions separated by a significant potential difference of 0.5 V to 1.0 V for certain types of substitutions (FIG. 6). For these molecules, two different redox processes occur at different potentials. Those molecules which have hydroxyl substituents in positions such as 1,2- and 1, 4- are particularly suitable for this purpose.\nIn Table 2 below we summarize the properties of these types of substituted anthraquinones that can be used on both as positive and negative electrode materials and others that have similar moieties but are not suitable for this type of deployment. The use of these molecules is suitable for use both acidic and alkaline media as shown by the rotating electrode studies."}, "[3]": {"assay": "Rate of crossover through NAFION 117 membrane", "assay_type": "physicochemical", "conditions": "for crossover rate rank order: over 192 hours; for concentration appearing by crossover through the membrane: 192 hours", "source_text": "In another embodiment, compounds for the first redox couple 22 and/or the second redox couple 32 of FIG. 1 that reduce crossover between the anode and cathode compartments are provided. The crossover of the redox active species across the cell is largely determined by the molecular size. Examples of the redox compounds of this embodiment include, but are not limited to, para-toluene sulfonic acid (p-TSA), 2,6-dimethyl-1,4-dihydroxy benzene 3-mono-sulfonic acid, 1,2-dihydroxybenzene-3,5-disulfonic acid (BQDS), and anthraquinone-2,7-disulfonic acid (AQDS). The rate of crossover of the various types of positive electrode materials through a NAFION® 117 membrane was measured. The concentration of p-TSA appearing by crossover through the membrane is found to be much higher than that of the DMDHMS and BQDS (FIG. 6). […] The crossover rate measured over a period of 192 hours provided a rank order of p-TSA>DMDHMS≈BQDS>>AQDS. This rank order correlates with molecular size. The molecules of smaller size will diffuse more readily through the proton conducting membrane. Therefore, it is claimed that by modifying the size of the molecule we can suppress or reduce crossover. The redox active molecules that are prone to crossover may be modified in the size by either applying substituent groups. Such substituent groups can be simple methyl groups, sulfonic acid groups, alkyl groups, branched alkyls such as tertiary butyl, aromatic groups such as phenyl or benzyl groups, multi-ring aromatic groups such as naphthyl, anthracenyl (with or without substituents) amino, quaternary amino, keto, carboxyl and quinone groups. Examples of such redox active molecules with substituents that are enhanced in molecular size include the following compounds having formula II, III, and IV: […]"}, "[4]": {"assay": "Crossover rate through NAFION 324 versus NAFION 117 membrane", "assay_type": "physicochemical", "conditions": "NAFION 324 (25-micron EW 1500 layer, 150-micron EW 1100 layer) vs NAFION 117 (EW 1100)", "source_text": "In a variation, the reduced rate of crossover of the redox active molecules is achieved by using a membrane with a higher equivalent weight of NAFION®. The membrane NAFION® 324, has a 25-micron layer of equivalent weight 1500 and a 150-micron layer of equivalent weight 1100. The crossover rate of DMDHMS through such a membrane is just 0.65 of that through a homogenous NAFION® 117 membrane that has an equivalent weight of 1100 throughout the membrane."}, "[5]": {"assay": "Cyclic voltammetry and redox cell states of AMBSA", "assay_type": "physicochemical", "conditions": "FIG. 4"}, "[6]": {"assay": "Charge and discharge cycling of organic redox flow cells", "conditions": "cell with anthraquinone-2,7-disulfonic acid, 0.5 M each", "source_text": "In another embodiment, the effects of crossover can be mitigated by using a mixture of positive and negative electrolyte materials in equimolar quantities at both the electrodes. When such a mixture is charged only the positive electrolyte component will undergo oxidation reaction at the positive electrode and the negative electrolyte material will undergo reduction reactions at the negative electrode. Since the concentration of the redox active species is identical even if crossover occurs, the positive electrolyte material occurred to the negative electrolyte side this change in concentration will be balanced by back diffusion. Thus, there might be self-discharge but no permanent capacity loss or compositional change of the electrolyte. Any two redox couples that qualify as positive and negative electrolyte materials can be mixed in equimolar proportions and used as the electrolyte. We have shown the feasibility of rechargeability of this type of mixed materials using DMDHMS and AQDS (FIG. 8). Nearly 100% of the charge input was returned during discharge.\nBased on the electrode potentials, the DHA can serve as the negative electrolyte and the AQDS can serve as the positive electrolyte. […] The cell was charged and discharged at 8 mA/cm^2. The value of cell voltage was consistent with that expected from the reduction potential of the redox couples. […]"}, "[7]": {"conditions": "alkaline electrolyte, 1 M potassium hydroxide"}}}
{"smiles": "O=C1c2cccc(O)c2C(=O)c2c(O)cccc21", "note": "[DHA, 1,8-dihydroxyanthraquinone]", "values": [{"measurement": "electrochemical behavior (cyclic voltammogram)", "setting": "[1]; 1 M sodium hydroxide", "value": "reversible electrochemical reaction"}, {"measurement": "reduction potential", "setting": "[1]; 1 M sodium hydroxide", "value": "about −0.7 V"}]}
{"smiles": "O=C1c2ccccc2C(=O)c2c1cc(S(=O)(=O)O)c(O)c2O", "note": "[1,2-dihydroxy, 3-sulfonic acid anthraquinone]", "values": [{"measurement": "Di-Couple Potential (yes/no)", "setting": "[2]", "value": "Yes"}, {"measurement": "Di-Couple Potential difference", "setting": "[2]", "value": 930, "unit": "mV"}, {"measurement": "E1/2(Volts) vs MMO", "setting": "[2]", "value": "−0.75", "unit": "V"}]}
{"smiles": "O=S(=O)(O)c1cc(O)c(O)c(S(=O)(=O)O)c1", "note": "[BQDS, 1,2-dihydroxybenzene-3,5-disulfonic acid]", "values": [{"measurement": "crossover rate rank order", "setting": "[3]", "value": "p-TSA>DMDHMS≈BQDS>>AQDS"}]}
{"smiles": "O=C(O)c1c(O)c(C(=O)O)c(C(=O)O)c(O)c1C(=O)O", "note": "[HQTC, hydroquinonetetracarboxylic acid]", "values": [{"measurement": "electrochemical behavior (cyclic voltammogram)", "setting": "[1]; [7]", "value": "reversible electrochemical behavior with two different sets of peaks"}]}
{"smiles": "O=C1c2ccccc2C(=O)c2c(O)ccc(O)c21", "note": "[1,4-dihydroxy anthraquinone]", "values": [{"measurement": "Di-Couple Potential (yes/no)", "setting": "[2]", "value": "Yes"}, {"measurement": "Di-Couple Potential difference", "setting": "[2]", "value": 880, "unit": "mV"}, {"measurement": "E1/2(Volts) vs MMO", "setting": "[2]", "value": "−0.63", "unit": "V"}]}
{"smiles": "Cc1cc(O)c(S(=O)(=O)O)c(C)c1O", "note": "[DMDHMS, 2,6-dimethyl-1,4-dihydroxybenzene-3-sulfonic acid]", "values": [{"measurement": "crossover rate through NAFION 324 relative to NAFION 117", "setting": "[4]", "value": 0.65}, {"measurement": "crossover rate rank order", "setting": "[3]", "value": "p-TSA>DMDHMS≈BQDS>>AQDS"}]}
{"smiles": "O=C1c2ccccc2C(=O)c2c(O)c(O)cc(O)c21", "note": "[1,2,4-trihydroxy anthraquinone]", "values": [{"measurement": "Di-Couple Potential (yes/no)", "setting": "[2]", "value": "Yes"}, {"measurement": "Di-Couple Potential difference", "setting": "[2]", "value": 840, "unit": "mV"}, {"measurement": "E1/2(Volts) vs MMO", "setting": "[2]", "value": "−0.84", "unit": "V"}]}
{"smiles": "O=C1c2ccc(O)cc2C(=O)c2ccc(O)cc21", "note": "[2,6-dihydroxy anthraquinone]", "values": [{"measurement": "Di-Couple Potential (yes/no)", "setting": "[2]", "value": "No"}, {"measurement": "E1/2(Volts) vs MMO", "setting": "[2]", "value": "−0.8", "unit": "V"}]}
{"smiles": "Cc1ccc(S(=O)(=O)O)cc1", "note": "[p-TSA, para-toluene sulfonic acid, reference compound]", "values": [{"measurement": "concentration appearing by crossover through the membrane", "setting": "[3]", "value": "much higher"}, {"measurement": "crossover rate rank order", "setting": "[3]", "value": "p-TSA>DMDHMS≈BQDS>>AQDS"}]}
{"smiles": "O=C1c2ccc(S(=O)(=O)O)cc2C(=O)c2cc(S(=O)(=O)O)ccc21", "note": "[AQDS, anthraquinone-2,7-disulfonic acid]", "values": [{"measurement": "electrochemical behavior (cyclic voltammogram)", "setting": "[1]; 1 M sodium hydroxide", "value": "reversible electrochemical behavior"}, {"measurement": "reduction potential", "setting": "[1]; 1 M sodium hydroxide", "value": "about −0.35 V"}, {"measurement": "concentration appearing by crossover through the membrane", "setting": "[3]", "value": "not detected"}, {"measurement": "crossover rate rank order", "setting": "[3]", "value": "p-TSA>DMDHMS≈BQDS>>AQDS"}]}
{"smiles": "O=C1c2cccc(O)c2C(=O)c2cccc(O)c21", "note": "[1,5-dihydroxy anthraquinone]", "values": [{"measurement": "Di-Couple Potential (yes/no)", "setting": "[2]", "value": "No"}, {"measurement": "E1/2(Volts) vs MMO", "setting": "[2]", "value": "−0.65", "unit": "V"}]}
{"smiles": "O=C1c2ccccc2C(=O)c2c1ccc(O)c2O", "note": "[difference1,2-dihydroxy anthraquinone, 1,2-dihydroxy anthraquinone]", "values": [{"measurement": "Di-Couple Potential (yes/no)", "setting": "[2]", "value": "Yes"}, {"measurement": "Di-Couple Potential difference", "setting": "[2]", "value": 1, "unit": "V"}, {"measurement": "E1/2(Volts) vs MMO", "setting": "[2]", "value": "−0.73", "unit": "V"}]}
{"smiles": "O=C1c2ccccc2C(=O)c2cc(Cc3cc(O)cc(S(=O)(=O)O)c3O)ccc21", "note": "[AMBSA, 2-anthraquinonemethyl (p-benzoquinol sulfonic acid)]", "values": [{"measurement": "cyclic voltammogram peaks", "setting": "[5]", "value": "two distinct peaks"}]}
{"smiles": "c1ccc2nccnc2c1", "note": "[quinoxaline]", "values": [{"measurement": "electrochemical behavior (cyclic voltammogram)", "setting": "[1]; [7]", "value": "reversible electrochemical behavior"}]}
{"smiles": "Cc1cc(O)c(C)c(S(=O)(=O)O)c1O", "note": "[2,5-dimethyl-1,4-dihydroxybenzene-3-sulfonic acid]", "values": [{"measurement": "resistance to Michael reaction, cycles of charge and discharge", "setting": "[6]", "value": "at least 100 cycles"}]}
